Results taken from patent US20260347372A1, “SMALL MOLECULE INHIBITORS OF KRAS G12D MUTANT” (MERCK SHARP & DOHME LLC, priority 2023, published 2026).

Experiments:
KRAS WT = KRAS WT (Homo sapiens, UniProt P01116); assay: SOS-catalyzed nucleotide exchange assay, KRAS WT (Procedure A); type: biochemical; details: GNE
Text: (§1) Procedure for SOS-Catalyzed Nucleotide Exchange Assay for KRAS-WT, G12C/D/V, G13D, HRAS, and NRAS (Procedure A)
(§2) Recombinant KRAS-G12C protein used in this assay has an additional triple mutation (C51S/C80L/C118S). Whereas KRAS-WT, G12D/V, G13D, HRAS and NRAS are in context of their WT protein sequence background. Specifically, the SOS-catalyzed nucleotide exchange assay utilizes a preformed TR-FRET complex containing a specific biotinylated RAS protein (KRAS-WT, G12C/V/D, G13D, HRAS, NRAS; described above) with Bodipy-GDP, and Terbium-streptavidin. Compounds are preincubated with this complex for 60 minutes. Subsequently, recombinant human SOS protein and unlabeled GTP are added to initiate the exchange reaction. Small molecule inhibitors stabilize the Bodipy-GDP complex whereas the untreated protein rapidly exchanges Bodipy-GDP for unlabeled GTP resulting in reduced TR-FRET signal.
(§3) To assemble the preformed TR-FRET complexes, each biotinylated RAS protein is diluted to 2 μM in an EDTA Buffer (20 mM HEPES pH 7.5, 50 mM sodium chloride, 10 mM EDTA, and 0.01% Tween) and incubated at room temperature for one hour. This mixture is then further diluted to 90 nM in an Assay Buffer (20 mM HEPES pH 7.5, 150 mM sodium chloride, 10 mM magnesium chloride, and 0.005% Tween) containing 15 nM of Terbium-Streptavidin (Invitrogen, catalog #PV3577) and 900 nM of Bodipy-GDP (Invitrogen, catalog #G22360) and incubated at room temperature for six hours. It should be noted that this preformed TR-FRET complex for each of the RAS protein were made ahead of time, aliquoted and stored at −80° C. until the day of the experiment.
(§4) Each test compound (10 mM stock in DMSO) is diluted in DMSO to make a final-10-point, 3-fold dilution and is acoustically dispensed into a 384-well assay plate (Corning, catalog #3820) using an Echo 550 (Labcyte). Each well of the assay plate receives 3 μL of a specific 3×RAS preformed TR-FRET complex and 3 μL of Assay Buffer and is incubated at room temperature for 60 minutes (preincubation time). Each well then receives 3 μL of 3× recombinant human SOS protein and GTP (Sigma, G8877) in Assay Buffer and is incubated at room temperature for 30 minutes (G13D), 60 minutes (KRAS WT/G12C/D, H/NRAS) or 90 minutes for G12V. The final reaction in each well of 9 μL consists of 3 mM GTP, specific Ras and SOS proteins in the following concentrations: KRAS-G12C/SOS=3 nM/40 nM, KRAS-WT and G12D/SOS=1 nM/40 nM, KRAS-G12V/SOS=1.25 nM/160 nM, KRAS-G13D/SOS=1.25 nM/0 nM, HRAS and NRAS=1.25 nM/40 nM.
(§5) The time-resolved fluorescence resonance energy transfer (TR-FRET) signal is measured on an Envision (PerkinElmer) plate reader: Excitation filter=340 nm; emission1=495 nm; emission2=520 nm; dichroic mirror=D400/D505; delay time=[…]. The signal of each well is determined as the ratio of the emission at 520 nm to that at 495 nm. Percent effect of each well is determined after normalization to control wells containing DMSO (no effect) or a saturating concentration of inhibitor (max effect). The apparent effect as a function of compound concentration is fit to a four-parameter logistic equation.
(§6) For Example No. 14, nucleotide exchange assays for KRAS G12D, WT, G12C, and G12V were performed according to Procedure B. All the other compounds were tested according to Procedure A.

KRAS G12V = KRAS G12V (Homo sapiens, UniProt P01116, G12V); assay: SOS-catalyzed nucleotide exchange assay, KRAS G12V (Procedure A); type: biochemical; details: GNE
Chain of KRAS G12V (P01116 with tags, fused parts or gaps isoform P01116-2 G12V): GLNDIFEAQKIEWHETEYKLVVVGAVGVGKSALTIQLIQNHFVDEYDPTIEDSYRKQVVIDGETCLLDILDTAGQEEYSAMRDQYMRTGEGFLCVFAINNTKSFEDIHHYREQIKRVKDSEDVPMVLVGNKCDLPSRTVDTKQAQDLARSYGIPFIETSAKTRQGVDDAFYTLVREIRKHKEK
Text: as §1, §2, §3, §4, §5, §6

AsPC-1 cells = target: T1, AsPC-1 cells (Homo sapiens, UniProt P01116, G12D); assay: Cellular phospho-ERK assay, AsPC-1 cells (KRAS G12D); type: cell-based; details: 2 hours, read-out: AsPC1 pERK IC50
T1 construct: p-ERK/total ERK AlphaSureFire read-out
T1 sequence (P01116 1-188 isoform P01116-2 G12D): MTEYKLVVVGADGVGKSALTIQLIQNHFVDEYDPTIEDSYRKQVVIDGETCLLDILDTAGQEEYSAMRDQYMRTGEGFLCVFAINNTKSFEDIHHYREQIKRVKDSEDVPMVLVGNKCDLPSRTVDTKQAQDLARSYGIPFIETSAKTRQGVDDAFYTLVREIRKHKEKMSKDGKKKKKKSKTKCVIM
Experimental: Procedure for Cellular Phospho-ERK Assay in KRAS Wild Type and Mutant (G12D, G12V) Cell Lines
PANC08.13 cells (ATCC® CRL-2551™), containing homozygous KRAS-G12D activating mutation, were cultured in growth medium made of RPMI1640-GlutaMAX™-I (ThermoFisher Scientific 61870) containing 15% heat inactivated fetal bovine serum (ThermoFisher Scientific 10091148)). AsPC-1 cells (ATCC® CRL-1682™), containing homozygous KRAS-G12D activating mutation, were cultured in T150 flask in growth medium (RPMI medium 1640-GlutaMAX™-I (ThermoFisher Scientific 61870) containing 10% fetal bovine serum (ThermoFisher Scientific 10091148)).
Cells for the assay were harvested in growth medium after TrypLE (ThermoFisher scientific 12604021) digestion and were seeded in a 384-well collagen coated cell culture plate (Corning 356702) at a density of 10,000-15,000 cells/20 μL/well, and incubated at 37° C., 5% CO2 overnight. The compound (with 10 mM stock concentration) dose-response titrations were prepared [30 μM final ERK detection assay concentration and 1:3 dilutions, 10-point dose response] and appropriate amounts (270 nL) of test compounds were dispensed in a 384-well intermediate plate using an Echo 550 liquid handler. 30 μL/well of RPMI medium 1640-GlutaMAX™-I was added to the intermediate plate and the contents of the intermediate plate (10 μL/well) were then transferred to the 384-well collagen coated cell culture plate, which was incubated at 37° C., 5% CO2 for 2 hours. After removal of medium from the collagen coated cell culture plate, cells were lysed in lysis buffer from Alpha SureFire® Ultra™ Multiplex p-ERK and total ERK assay kit (PerkinElmer MPSU-PTERK) containing Halt™ Protease and Phosphatase inhibitor cocktail (ThermoFisher Scientific 78446) at room temperature with constant shaking at 300 rpm for 30 minutes. The cell lysates were then transferred to an OptiPlate-384 plate (PerkinElmer 6005620), and the phosphorylation of ERK (p-ERK) and total ERK levels were detected by Alpha SureFire® Ultra™ Multiplex p-EEK kit and total ERK assay kit (PerkinElmer MPSU-PTERK) following the manufacturer's protocol. Assay plates were read on a EnVision Multimode Plate Reader (PerkinElmer), and the ratio of p-ERK vs. total ERK in each well was used as the final readout. Dose response curves were analyzed using a 4-parameter logistic model to calculate IC50 values using Spotfire software.

KRAS G12D = KRAS G12D (Homo sapiens, UniProt P01116, G12D); assay: SOS-catalyzed nucleotide exchange assay, KRAS G12D (Procedure A); type: biochemical; details: guanine nucleotide exchange (GNE)
Chain of KRAS G12D (P01116 with tags, fused parts or gaps isoform P01116-2 G12D): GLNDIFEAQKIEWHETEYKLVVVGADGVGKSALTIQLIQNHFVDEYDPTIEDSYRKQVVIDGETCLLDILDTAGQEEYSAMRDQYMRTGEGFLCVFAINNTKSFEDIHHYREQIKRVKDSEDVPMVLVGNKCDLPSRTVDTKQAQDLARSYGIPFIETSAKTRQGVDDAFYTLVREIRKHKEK
Text: as §1, §2, §3, §4, §5, §6

Chain of KRAS WT (P01116 with tags, fused parts or gaps isoform P01116-2): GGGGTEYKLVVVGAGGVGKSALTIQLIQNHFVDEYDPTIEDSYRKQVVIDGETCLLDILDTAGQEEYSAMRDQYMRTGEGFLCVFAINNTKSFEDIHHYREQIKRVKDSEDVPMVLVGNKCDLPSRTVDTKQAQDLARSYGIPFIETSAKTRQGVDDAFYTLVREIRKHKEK

Structure (SMILES)	IC50 (KRAS WT) [µM]	IC50 (KRAS G12V) [µM]	IC50 (AsPC-1 cells) [µM]	IC50 (KRAS G12D) [µM]
Cc1cc2[nH]ncc2c(-c2nccc3c2sc2nc(OC[C@@]45CCCN4C[C@H](F)C5)nc(N4C[C@H]5CC[C@@H](C4)N5CC(C)O)c23)c1C(F)(F)F (stereo partly drawn) [Ex-113, 1-((1R,5S)-3-(2-(((2R,7aS)-2-fluorotetrahydro-1H-pyrrolizin-7a(5H)-yl)methoxy)-8-(6-methyl-5-(trifluoromethyl)-1H-indazol-4-yl)pyrido[4′,3′:4,5]thieno[2,3-d]pyrimidin-4-yl)-3,8-diazabicyclo[3.2.1]octan-8-yl)propan-2-ol]	1.11	1.85	2.38	0.492
Cc1cc2[nH]ncc2c(-c2nccc3c2sc2nc(OCC4CCCN(S(C)(=O)=O)C4)nc(N4C[C@H]5CC[C@@H](C4)N5)c23)c1C(F)(F)F (stereo partly drawn) [Ex-50, 4-((1R,5S)-3,8-diazabicyclo[3.2.1]octan-3-yl)-8-(6-methyl-5-(trifluoromethyl)-1H-indazol-4-yl)-2-((1-(methylsulfonyl)piperidin-3-yl)methoxy)pyrido[4′,3′:4,5]thi-eno[2,3-d]pyrimidine]	–	–	> 30	2.38
Cc1cc2[nH]ncc2c(-c2nccc3c2sc2nc(OCC4(C#N)CCOC4)nc(N4C[C@H]5CC[C@@H](C4)N5)c23)c1C(F)(F)F (stereo partly drawn) [Ex-49, 3-(((4-((1R,5S)-3,8-diazabicyclo[3.2.1]octan-3-yl)-8-(6-methyl-5-(trifluoromethyl)-1H-indazol-4-yl)pyrido[4′,3′:4,5]thieno[2,3-d]pyrimidin-2-yl)oxy)methyl)tetrahydrofuran-3-carbonitrile]	–	–	5.98	1.46
Cc1cc2[nH]ncc2c(-c2nccc3c2sc2nc(OCCC4CCS(=O)(=O)CC4)nc(N4C[C@H]5CC[C@@H](C4)N5)c23)c1C(F)(F)F [Ex-41, 4-(2-((4-((1R,5S)-3,8-diazabicyclo[3.2.1]octan-3-yl)-8-(6-methyl-5-(trifluoromethyl)-1H-indazol-4-yl)pyrido[4′,3′:4,5]thieno[2,3-d]pyrimidin-2-yl)oxy)ethyl)tetrahydro-2H-thiopyran 1,1-dioxide]	–	–	> 30	4.64
Cc1cc2[nH]ncc2c(-c2nccc3c2sc2nc(OC[C@H]4C[C@H](C#N)C4)nc(N4C[C@H]5CC[C@@H](C4)N5)c23)c1C(F)(F)F [Ex-45, (1R,3r)-3-(((4-((1R,5S)-3,8-diazabicyclo[3.2.1]octan-3-yl)-8-(6-methyl-5-(trifluoromethyl)-1H-indazol-4-yl)pyrido[4′,3′:4,5]thieno[2,3-d]pyrimidin-2-yl)oxy)methyl)cyclobutane-1-carbonitrile]	–	–	4.87	3.01
Cc1cc2[nH]ncc2c(-c2nccc3c2sc2nc(OCC4COC(C)(C)CO4)nc(N4C[C@H]5CC[C@@H](C4)N5)c23)c1C(F)(F)F (stereo partly drawn) [Ex-48, 4-((1R,5S)-3,8-diazabicyclo[3.2.1]octan-3-yl)-2-((5,5-dimethy1-1,4-dioxan-2-yl)methoxy)-8-(6-methy1-5-(trifluoromethyl)-1H-indazol-4-yl)pyrido[4′,3′:4,5]thieno[2,3-d]pyrimidine]	–	–	14.9	3.35
COC1(COc2nc(N3C[C@H]4CC[C@@H](C3)N4)c3c(n2)sc2c(-c4c(C(F)(F)F)c(C)cc5[nH]ncc45)nccc23)CCOC1 (stereo partly drawn) [Ex-44, 4-((1R,5S)-3,8-diazabicyclo[3.2.1]octan-3-yl)-2-((3-methoxytetrahydrofuran-3-yl)methoxy)-8-(6-methyl-5-(trifluoromethyl)-1H-indazol-4-yl)pyrido[4′,3′:4,5]thieno[2,3-d]pyrimidine]	–	–	4.67	2.64
Cc1cc2[nH]ncc2c(-c2nccc3c2sc2nc(OCC45COC(C4)C5)nc(N4C[C@H]5CC[C@@H](C4)N5)c23)c1C(F)(F)F [Ex-43, 2-((2-oxabicyclo[2.1.1]hexan-4-yl)methoxy)-4-((1R,5S)-3,8-diazabicyclo[3.2.1]octan-3-yl)-8-(6-methyl-5-(trifluoromethyl)-1H-indazol-4-yl)pyrido[4′,3′:4,5]thieno[2,3-d]pyrimidine]	–	–	6.83	2.18
Cc1cc2[nH]ncc2c(-c2nccc3c2sc2nc(OC[C@H]4CCCO4)nc(N4C[C@H]5CC[C@@H](C4)N5)c23)c1C(F)(F)F [Ex-47, 4-((1R,5S)-3,8-diazabicyclo[3.2.1]octan-3-yl)-8-(6-methyl-5-(trifluoromethyl)-1H-indazol-4-yl)-2-(((R)-tetrahydrofuran-2-yl)methoxy)pyrido[4′,3′:4,5]thi-eno[2,3-d]pyrimidine]	–	–	11.3	3.13
CCOC1(COc2nc(N3C[C@H]4CC[C@@H](C3)N4)c3c(n2)sc2c(-c4c(C(F)(F)F)c(C)cc5[nH]ncc45)nccc23)CCOC1 (stereo partly drawn) [Ex-42, 4-((1R,5S)-3,8-diazabicyclo[3.2.1]octan-3-yl)-2-((3-ethoxytetrahydrofuran-3-yl)methoxy)-8-(6-methyl-5-(trifluoromethyl)-1H-indazol-4-yl)pyrido[4′,3′:4,5]thieno[2,3-d]pyrimidine]	–	–	6.52	3.1
Cc1cc2[nH]ncc2c(-c2nccc3c2sc2nc(OCC4(C)CCCO4)nc(N4C[C@H]5CC[C@@H](C4)N5)c23)c1C(F)(F)F (stereo partly drawn) [Ex-46, 4-((1R,5S)-3,8-diazabicyclo[3.2.1]octan-3-yl)-8-(6-methy1-5-(trifluoromethyl)-1H-indazol-4-yl)-2-((2-methyltetrahydrofuran-2-yl)methoxy)pyrido[4′,3′:4,5]thi-eno[2,3-d]pyrimidine]	–	–	12.6	2.81
